Experimental findings from PubChem BioAssay AID1259407 (Chemical Carcinogenesis Research Information System (CCRIS), 2018) are described below.

This data set deals with CCRIS mutagenicity, Ames/micronucleus/aberration tests. Description: CCRIS mutagenicity studies.
Where [1] appears, read: Test System: AMES SALMONELLA TYPHIMURIUM, Strain/Indicator: TA98, Metabolic Activation: NONE, Method: STANDARD PLATE.
Where [2] appears, read: Test System: AMES SALMONELLA TYPHIMURIUM, Strain/Indicator: TA98, Metabolic Activation: RAT, LIVER, S-9, AROCLOR 1254, Method: STANDARD PLATE.
Setting [3] is: Test System: AMES SALMONELLA TYPHIMURIUM, Strain/Indicator: TA100, Metabolic Activation: NONE, Method: STANDARD PLATE.
Setting [4] is: Test System: AMES SALMONELLA TYPHIMURIUM, Strain/Indicator: TA100, Metabolic Activation: RAT, LIVER, S-9, AROCLOR 1254, Method: STANDARD PLATE.
The mark [5] stands for this setting: Test System: MOUSE LYMPHOMA, Strain/Indicator: L5178Y (TK+/TK-), Metabolic Activation: NONE, Method: SUSPENSION/PLATE.

Molecules are shown by their SMILES. Activity calls are given as the source filed them. No rule for the calls is given here.

On to `CC[C@H]1OC(=O)[C@H](C)[C@@H](O[C@H]2C[C@@](C)(OC)[C@@H](O)[C@H](C)O2)[C@H](C)[C@@H](O[C@@H]2O[C@H](C)C[C@H](N(C)C)[C@H]2O)[C@](C)(O)C[C@@H](C)CN(C)[C@H](C)[C@@H](O)[C@]1(C)O`, for which the mutagenic call reads like this: (Test System: AMES SALMONELLA TYPHIMURIUM, Strain/Indicator: TA98, Metabolic Activation: MOUSE, LIVER, S-9, AROCLOR 1254, Method: STANDARD PLATE) “inactive; negative”; (Test System: AMES SALMONELLA TYPHIMURIUM, Strain/Indicator: TA98, Metabolic Activation: MOUSE, LIVER, S-9, Method: STANDARD PLATE) “inactive; negative”; under setting [1], “inactive; negative”; under setting [2], “inactive; negative”; (Test System: AMES SALMONELLA TYPHIMURIUM, Strain/Indicator: TA98, Metabolic Activation: RAT, LIVER, S-9, Method: STANDARD PLATE) “inactive; negative”; (Test System: AMES SALMONELLA TYPHIMURIUM, Strain/Indicator: TA100, Metabolic Activation: MOUSE, LIVER, S-9, AROCLOR 1254, Method: STANDARD PLATE) “inactive; negative”. Also, the mutagenic call reads like this: (Test System: AMES SALMONELLA TYPHIMURIUM, Strain/Indicator: TA100, Metabolic Activation: MOUSE, LIVER, S-9, Method: STANDARD PLATE) “inactive; negative”; under setting [3], “inactive; negative”; under setting [4], “inactive; negative”; (Test System: AMES SALMONELLA TYPHIMURIUM, Strain/Indicator: TA100, Metabolic Activation: RAT, LIVER, S-9, Method: STANDARD PLATE) “inactive; negative”; (Test System: AMES SALMONELLA TYPHIMURIUM, Strain/Indicator: TA1535, Metabolic Activation: MOUSE, LIVER, S-9, AROCLOR 1254, Method: STANDARD PLATE) “inactive; negative”; (Test System: AMES SALMONELLA TYPHIMURIUM, Strain/Indicator: TA1535, Metabolic Activation: MOUSE, LIVER, S-9, Method: STANDARD PLATE) “inactive; negative”. Moreover, the mutagenic call reads like this: (Test System: AMES SALMONELLA TYPHIMURIUM, Strain/Indicator: TA1535, Metabolic Activation: NONE, Method: STANDARD PLATE) “inactive; negative”; (Test System: AMES SALMONELLA TYPHIMURIUM, Strain/Indicator: TA1535, Metabolic Activation: RAT, LIVER, S-9, AROCLOR 1254, Method: STANDARD PLATE) “inactive; negative”; (Test System: AMES SALMONELLA TYPHIMURIUM, Strain/Indicator: TA1535, Metabolic Activation: RAT, LIVER, S-9, Method: STANDARD PLATE) “inactive; negative”; (Test System: AMES SALMONELLA TYPHIMURIUM, Strain/Indicator: TA1537, Metabolic Activation: MOUSE, LIVER, S-9, AROCLOR 1254, Method: STANDARD PLATE) “inactive; negative”; (Test System: AMES SALMONELLA TYPHIMURIUM, Strain/Indicator: TA1537, Metabolic Activation: MOUSE, LIVER, S-9, Method: STANDARD PLATE) “inactive; negative”; (Test System: AMES SALMONELLA TYPHIMURIUM, Strain/Indicator: TA1537, Metabolic Activation: NONE, Method: STANDARD PLATE) “inactive; negative”. Besides, the mutagenic call by setting is: (Test System: AMES SALMONELLA TYPHIMURIUM, Strain/Indicator: TA1537, Metabolic Activation: RAT, LIVER, S-9, AROCLOR 1254, Method: STANDARD PLATE) “inactive; negative”; (Test System: AMES SALMONELLA TYPHIMURIUM, Strain/Indicator: TA1537, Metabolic Activation: RAT, LIVER, S-9, Method: STANDARD PLATE) “inactive; negative”; under setting [5], “inactive; negative”; (Test System: MOUSE LYMPHOMA, Strain/Indicator: L5178Y (TK+/TK-), Metabolic Activation: RAT, LIVER, S-9, Method: SUSPENSION/PLATE) “inactive; negative”.

`ClC1=C(Cl)[C@]2(Cl)[C@@H]3[C@@H]4C[C@@H]([C@H]5O[C@@H]45)[C@@H]3[C@@]1(Cl)C2(Cl)Cl`: the mutagenic call runs as follows: (End Point: IN VITRO CHROMOSOMAL ABERRATIONS, Test System: CHINESE HAMSTER OVARY CELLS, Metabolic Activation: NONE) “inactive; negative”; (End Point: IN VITRO CHROMOSOMAL ABERRATIONS, Test System: CHINESE HAMSTER OVARY CELLS, Metabolic Activation: RAT, LIVER, S-9, AROCLOR 1254) “inactive; negative; precipitation occurred at all doses”; (Test System: AMES SALMONELLA TYPHIMURIUM, Strain/Indicator: TA97, Metabolic Activation: NONE, Method: STANDARD PLATE) “inactive; negative”; (Test System: AMES SALMONELLA TYPHIMURIUM, Strain/Indicator: TA97, Metabolic Activation: RAT, LIVER, S-9, AROCLOR 1254, Method: STANDARD PLATE) “inactive; negative”; under setting [1], “inactive; negative”; under setting [2], “inactive; negative”. In addition, the mutagenic call is, setting by setting: under setting [3], “inactive; negative”; under setting [4], “inactive; negative”; (Test System: AMES SALMONELLA TYPHIMURIUM, Strain/Indicator: TA102, Metabolic Activation: NONE, Method: STANDARD PLATE) “inactive; negative”; (Test System: AMES SALMONELLA TYPHIMURIUM, Strain/Indicator: TA102, Metabolic Activation: RAT, LIVER, S-9, AROCLOR 1254, Method: STANDARD PLATE) “inactive; negative”; (Test System: CHINESE HAMSTER V-79, Strain/Indicator: V-79/OUABAIN, Metabolic Activation: NONE, Method: STANDARD PLATE) “active; positive”; under setting [5], “active; positive”.
